In brackets after ≈: the same amount, converted by molar mass. Bounds are passed on as bounds.

For orientation: MIC means the lowest concentration that inhibits growth of the organism.

Holding throughout (format): cell-based, Staphylococcus aureus
One test concerns Staph aureus 1095 MRSA. As to the kind of experiment: MIC, microtiter broth dilution (CLSI M7-A7), Assay 1, Table 12 column A, no serum. Conditions: Assay 1, no serum; for MIC: Staphylococcus aureus, MRSA. A digest of the protocol: (§1)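 Staphylococcus aureus susceptibility is measured by CLSI M7-A7 broth microdilution in microtiter trays. For serum testing, bacteria are inoculated into Mueller-Hinton Broth containing 50% pooled inactivated human serum. The MIC in μg/ml is the lowest concentration preventing visible growth.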

Test [1] relates to Staph aureus 1146. Description: MIC in Mueller-Hinton Broth with 50% pooled inactivated human serum, Assay 1, Table 12. Conditions: for MIC: Staphylococcus aureus, 1146, Staph aureus 1146, Assay 1, 50% human serum, read-out: MIC, column C; for MIC, column C: Staph aureus 1146, Assay 1, 50% human serum. The essentials:
as §1

A further test deals with Staph aureus 2811. Description: MIC, microtiter broth dilution (CLSI M7-A7), Assay 1, Table 12 column D, no serum. Conditions: for MIC: Staphylococcus aureus, 2811, Staph aureus 2811, Assay 1, no serum; for MIC, column D: Staph aureus 2811, Assay 1, no serum. The essentials:
as §1

The next test relates to Staph aureus 2812. Description: MIC, microtiter broth dilution (CLSI M7-A7), Assay 1, Table 12 column E, no serum. Conditions: for MIC: Staphylococcus aureus, 2812, Staph aureus 2812, Assay 1, no serum; for MIC, column E: Staph aureus 2812, Assay 1, no serum. The essentials:
as §1
In general terms: In broth dilution the organism is exposed to a series of concentrations in liquid medium.

Test [2] has as its system Staph aureus 1146. Description: MIC, microtiter broth dilution (CLSI M7-A7), Assay 1, Table 12 column B, no serum. Conditions: for MIC: Staphylococcus aureus, 1146, Staph aureus 1146, Assay 1, no serum; for MIC, column B: Staph aureus 1146, Assay 1, no serum. A digest of the protocol: as §1

Regarding `COc1ccc2ncc(Cl)c(CCCC3(C(=O)O)CCN(C4CC(c5ccccc5)C4)CC3)c2c1` (stereo not drawn) [Example 108, 4-[3-(3-chloro-6-methoxyquinolin-4-yl)propyl]-1-(3-phenylcyclobutyl)piperidine-4-carboxylic acid], the MIC with Staph aureus 1095 MRSA is no more than 0.0625 µg/mL; in the test with Staph aureus 1146 [1] it was 64 µg/mL (≈ 130 µM); against Staph aureus 2811 it was no more than 0.0625 µg/mL; against Staph aureus 2812, no more than 0.0625 µg/mL; against Staph aureus 1146 [2], no more than 0.0625 µg/mL.

For the compound `COc1ccc2ncc(Cl)c(CCCC3(C(=O)O)CCN(C4CC(c5ccccc5)C4)CC3O)c2c1` (stereo not drawn) [Example 109, 4-[3-(3-chloro-6-methoxyquinolin-4-yl)propyl]-3-hydroxy-1-(3-phenylcyclobutyl)piperidine-4-carboxylic acid], the MIC with Staph aureus 1095 MRSA was 1 µg/mL (≈ 1.96 µM); in the test on Staph aureus 1146 [1] it was greater than 64 µg/mL; with Staph aureus 2811, 0.25 µg/mL (≈ 0.491 µM); against Staph aureus 2812 it was 1 µg/mL (≈ 1.96 µM); against Staph aureus 1146 [2], 0.5 µg/mL (≈ 0.982 µM).

Regarding `COc1ccc2nccc(C(O)CC[C@@H]3CCN(C4CC(c5ccc(F)cc5)C4)C[C@@H]3C(=O)O)c2c1` (stereo partly drawn) [Example 88, (3R,4R)-1-[3-(4-fluorophenyl)cyclobutyl]-4-[3-hydroxy-3-(6-methoxyquinolin-4-yl)propyl]piperidine-3-carboxylic acid], the MIC with Staph aureus 1095 MRSA stood at 1 µg/mL (≈ 2.03 µM); in the test on Staph aureus 1146 [1], 4 µg/mL (≈ 8.12 µM); against Staph aureus 2811, 0.25 µg/mL (≈ 0.508 µM); with Staph aureus 2812, 0.25 µg/mL (≈ 0.508 µM); in the test with Staph aureus 1146 [2], 0.5 µg/mL (≈ 1.02 µM).

As to `COc1ccc2ncc(F)c(CCCC3(C(=O)O)CCN(C4CC(c5nc(C)no5)C4)CC3)c2c1` (stereo not drawn) [Example 98, 4-[3-(3-fluoro-6-methoxyquinolin-4-yl)propyl]-1-[3-(3-methyl-1,2,4-oxadiazol-5-yl)cyclobutyl]piperidine-4-carboxylic acid], the MIC came to 4 µg/mL (≈ 8.29 µM) with Staph aureus 1095 MRSA; 64 µg/mL (≈ 133 µM) in the test on Staph aureus 1146 [1]; 2 µg/mL (≈ 4.14 µM) against Staph aureus 2811; 4 µg/mL (≈ 8.29 µM) in the test on Staph aureus 2812; 2 µg/mL (≈ 4.14 µM) in the test with Staph aureus 1146 [2].

Turning to `O=C(O)[C@H]1CN(C2CC(c3ccccc3)C2)CC[C@H]1CCC(O)c1ccnc2ccc(O)cc12` (stereo partly drawn) [Example 142, (3R,4R)-4-[3-hydroxy-3-(6-hydroxyquinolin-4-yl)propyl]-1-(3-phenylcyclobutyl)piperidine-3-carboxylic acid], the MIC in the test with Staph aureus 1095 MRSA was 32 µg/mL (≈ 69.5 µM); in the test on Staph aureus 1146 [1], greater than 64 µg/mL; against Staph aureus 2811, 8 µg/mL (≈ 17.4 µM); against Staph aureus 2812 it was 16 µg/mL (≈ 34.7 µM); against Staph aureus 1146 [2] it was 16 µg/mL (≈ 34.7 µM).

For “(3R,4R)-1-[3-(2,5-difluorophenyl)cyclobutyl]-4-[3-(3-fluoro-6-methoxy-1,5-naphthyridin-4-yl)-3-hydroxypropyl]piperidine-3-carboxylic acid [Example 219]”, the “MIC, column A” value against Staph aureus 1095 MRSA was 0.250 µg/mL. Also, the “MIC, column C” value with Staph aureus 1146 [1] was determined as 2.00 µg/mL. In addition, the “MIC, column D” value in the test with Staph aureus 2811 was less than 0.0625 µg/mL. Besides, the “MIC, column E” value in the test with Staph aureus 2812 came to 0.125 µg/mL. The “MIC, column B” value against Staph aureus 1146 [2] was less than 0.0625 µg/mL.

As for `COc1ccc2nccc(C(CC[C@@H]3CCN(C4CC(c5ccccc5)C4)C[C@@H]3C(=O)O)N3CCC3)c2c1` (stereo partly drawn) [Example 137, (3R,4R)-4-[3-Azetidin-1-yl-3-(6-methoxy-quinolin-4-yl)-propyl]-1-(3-phenylcyclobutyl)piperidine-3-carboxylic acid], the MIC with Staph aureus 1095 MRSA was greater than 64 µg/mL; with Staph aureus 1146 [1], greater than 64 µg/mL; in the test on Staph aureus 2811, 64 µg/mL (≈ 125 µM); against Staph aureus 2812, 64 µg/mL (≈ 125 µM); in the test on Staph aureus 1146 [2] it was 64 µg/mL (≈ 125 µM).

For the compound `COc1ccc2ncc(Cl)c(CCCC3(C(=O)O)CCN(C4CN(c5ccccn5)C4)CC3)c2c1` [Example 126, 4-(3-(3-chloro-6-methoxyquinolin-4-yl)propyl)-1-(1-(pyridin-2-yl)azetidin-3-yl)piperidine-4-carboxylic add], the “MIC, column A” value in the test with Staph aureus 1095 MRSA is greater than 64 µg/mL. For the same compound, in the test on Staph aureus 1146 [1], the “MIC, column C” value was greater than 64 µg/mL. For the same compound, in the test with Staph aureus 2811, the “MIC, column D” value turned out to be 2 µg/mL (≈ 4.04 µM). Also, the “MIC, column E” value in the test on Staph aureus 2812 was determined as 4 µg/mL (≈ 8.08 µM). In addition, the “MIC, column B” value in the test with Staph aureus 1146 [2] came out at 8 µg/mL (≈ 16.2 µM).

Turning to `COc1ccc2nccc(C(O)CC[C@@H]3CCN(C4CC5(CCCC5)C4)C[C@@H]3C(=O)O)c2c1` (stereo partly drawn) [Example 55, (3R,4R)-4-[3-hydroxy-3-(6-methoxyquinolin-4-yl)propyl]-1-spiro[3.4]oct-2-ylpiperidine-3-carboxylic acid], the MIC is 4 µg/mL (≈ 8.84 µM) against Staph aureus 1095 MRSA; 32 µg/mL (≈ 70.7 µM) with Staph aureus 1146 [1]; 2 µg/mL (≈ 4.42 µM) against Staph aureus 2811; 2 µg/mL (≈ 4.42 µM) against Staph aureus 2812; 1 µg/mL (≈ 2.21 µM) in the test with Staph aureus 1146 [2].

`COc1ccc2nccc(C(O)CC[C@@H]3CCN(C4CC(c5nc(C)no5)C4)C[C@@H]3C(=O)O)c2c1` (stereo partly drawn) [Example 102, (3R,4R)-4-[3-hydroxy-3-(6-methoxyquinolin-4-yl)propyl]-1-[3-(3-methyl-1,2,4-oxadiazol-5-yl)cyclobutyl]piperidine-3-carboxylic acid]: the MIC came out at 16 µg/mL (≈ 33.3 µM) against Staph aureus 1095 MRSA; 64 µg/mL (≈ 133 µM) in the test on Staph aureus 1146 [1]; 8 µg/mL (≈ 16.6 µM) in the test on Staph aureus 2811; 16 µg/mL (≈ 33.3 µM) in the test on Staph aureus 2812; 16 µg/mL (≈ 33.3 µM) in the test on Staph aureus 1146 [2].

As to `COc1ccc2nc(C)cc(C(O)CC[C@@H]3CCN(C4CC(c5c(F)cccc5F)C4)C[C@@H]3C(=O)O)c2c1` (stereo partly drawn) [Example 179, (3R,4R)-1-[3-(2,6-difluorophenyl)cyclobutyl]-4-[3-hydroxy-3-(6-methoxy-2-methylquinolin-4-yl)propyl] piperidine-3-carboxylic acid], the MIC with Staph aureus 1095 MRSA was 2 µg/mL (≈ 3.81 µM); with Staph aureus 1146 [1] it was 32 µg/mL (≈ 61 µM); against Staph aureus 2811, 1 µg/mL (≈ 1.91 µM); in the test on Staph aureus 2812, 1 µg/mL (≈ 1.91 µM); in the test with Staph aureus 1146 [2], 1 µg/mL (≈ 1.91 µM).

Consider `COc1ccc2nccc([C@@H](O)CC[C@@H]3CCN(C4CC(c5cc(F)ccc5F)C4)C[C@@H]3C(=O)O)c2c1` (stereo partly drawn) [Example 40, (3R,4R)-1-[3-(2,5-difluorophenyl)cyclobutyl]-4-[(3S)-3-hydroxy-3-(6-methoxyquinolin-4-yl)propyl] piperidine-3-carboxylic acid], for which the MIC against Staph aureus 1095 MRSA is 0.125 µg/mL (≈ 0.245 µM); in the test with Staph aureus 1146 [1], 1.26 µg/mL (≈ 2.47 µM); with Staph aureus 2811, no more than 0.0625 µg/mL; with Staph aureus 2812, no more than 0.0625 µg/mL; with Staph aureus 1146 [2], no more than 0.0625 µg/mL.

For `COc1ccc2nccc(C(O)CC[C@@H]3CCN(C4CC(c5cccc(F)c5F)C4)C[C@@H]3C(=O)O)c2c1` (stereo partly drawn) [Example 36, (3R,4R)-1-[3-(2,3-difluorophenyl)cyclobutyl]-4-[3-hydroxy-3-(6-methoxyquinolin-4-yl)propyl] piperidine-3-carboxylic acid], the MIC against Staph aureus 1095 MRSA was 0.125 µg/mL (≈ 0.245 µM); in the test on Staph aureus 1146 [1], 2 µg/mL (≈ 3.92 µM); against Staph aureus 2811 it was no more than 0.0625 µg/mL; against Staph aureus 2812, no more than 0.0625 µg/mL; with Staph aureus 1146 [2] it was no more than 0.0625 µg/mL.

Regarding `COc1ccc2nccc([C@@H](O)CC[C@@H]3CCN(C4CC(C5CCCC5)C4)C[C@@H]3C(=O)O)c2c1` (stereo partly drawn) [Example 47, (3R,4R)-1-(3-cyclopentylcyclobutyl)-4-[(3S)-3-hydroxy-3-(6-methoxyquinolin-4-yl)propyl]piperidine-3-carboxylic acid], the MIC against Staph aureus 1095 MRSA was 0.125 µg/mL (≈ 0.268 µM); with Staph aureus 1146 [1], 0.5 µg/mL (≈ 1.07 µM); against Staph aureus 2811, no more than 0.0625 µg/mL; with Staph aureus 2812, 0.125 µg/mL (≈ 0.268 µM); against Staph aureus 1146 [2], no more than 0.0625 µg/mL.

With `COc1ccc2ccnc(CCCC3(C(=O)O)CCN(C4CC(c5ccccc5)C4)CC3)c2c1` (stereo not drawn) [Example 121, 4-[3-(7-methoxyisoquinolin-1-yl)propyl]-1-(3-phenylcyclobutyl)piperidine-4-carboxylic acid], the MIC was 2 µg/mL (≈ 4.36 µM) against Staph aureus 1095 MRSA; greater than 64 µg/mL in the test with Staph aureus 1146 [1]; 1 µg/mL (≈ 2.18 µM) with Staph aureus 2811; 1 µg/mL (≈ 2.18 µM) against Staph aureus 2812; 1 µg/mL (≈ 2.18 µM) with Staph aureus 1146 [2].

The values above are taken from patent US20080280879A1, “SUBSTITUTED HETEROCYCLIC DERIVATIVES AND THEIR PHARMACEUTICAL USE AND COMPOSITIONS” (priority 2007, published 2008).
